Results: US11504368B2, “2,6-diamino-3,4-dihydropyrimidin-4-one derivatives and use thereof in therapy” (THOMAS HELLEDAYS STIFTELSE FÖR MEDICINSK FORSKNING, priority 2018, dated 2022)
Structures can show the parent of a compound that is named as a salt.

What was measured:
[1] = target: MTHFD2 (Homo sapiens (Human), UniProt P13995); test: Inhibition of MTHFD2 (NAD(P)H-Glo luminescence); assay type: biochemical; settings: 3.4 nmol/L MTHFD2, 5 μmol/L folitixorin, 250 μmol/L NAD+; mean of at least 3 independent measurements
Procedure: DMSO was used as negative control. The serial dilution in DMSO, from compound DMSO stock solution, was created by dispensing from a 384-well low dead volume microplate (LP-0200, Labcyte) and a 384-well polypropylene microplate 2.0 (PP-0200, Labcyte). A total of 2.5 μL MTHFD2 was preincubated with compound or DMSO for 10 min. The enzymatic reaction was initiated by adding 2.5 μL folitixorin (F680350, Toronto Research Chemicals). For background control, 5 μL buffer was added to the well. […] The final concentrations of all reagents in a total assay volume of 5 μL per well were 50 mmol/L Tris-HCl at pH 8.0, 100 mmol/L NaCl, 5 mmol/L MgCl2, 25 mmol/L Na3PO4 at pH 8.0, 0.005% (v/v) Tween-20, and 2 mmol/L 2-mercaptoethanol. After 15 min reaction time, 5 μL NAD(P)H-Glo detection reagent (G9061 or G9062, Promega) was dispensed in all wells and the plate was incubated for 60 min. Luminescence was measured on a plate reader (Envision, PerkinElmer or Sense, Hidex). The light signal produced is proportional to the amount of NAD(P)H in the sample. IC50 values were determined by fitting a four parameter sigmoidal curve model using XLfit (IDBS). Reported IC50 values are the mean of at least 3 independent measurements.

[2] = tested on: HL-60 cells; test: Cancer cell viability assay (HL-60, resazurin); assay type: cell-based; settings: Homo sapiens, 96 h, mean of at least 3 independent measurements, read-out: HL60 cell proliferation inhibition EC50
Procedure: HL-60 cells (human promyelocytic leukemia cells) were seeded in a 384-well plate at a density of 2,000 cells per well in 50 μL induction medium and treated with vehicle (DMSO) or an 11-point concentration range with 3-fold dilution in concentration of compound. Each assay point was run in duplicate. Wells without cells but with DMSO were used as negative controls. The cells were left to proliferate over a period of 96 h, in an incubator at 37° C. and 5% CO2, followed by an addition of 10 μL […] resazurin sodium salt (199303, Sigma-Aldrich) dissolved in DPBS (14190, Gibco). After 4 h of incubation at 37° C. and 5% CO2, the fluorescent signal was measured using an excitation wavelength of 544 nm and an emission wavelength of 595 nm in a Hidex Sense plate reader. Cell plates were incubated in boxes with damp paper tissues to avoid evaporation. All additions, except compound and DMSO, were done using the Multidrop Combi (Thermo Fisher Scientific). DMSO and compounds were pre-dispensed with an Echo 550 Liquid handler (Labcyte) in black, clear bottom, TC-treated and sterile 384-well plates (3764, Corning). Growth medium consisted of RPMI 1640 GlutaMAX (61870, Gibco), 10% (v/v) FBS (10500, Gibco), and 1% (v/v) P/S (15070, Gibco). Induction medium consisted of RPMI 1640 GlutaMAX (61870, Gibco), 5% (v/v) FBS (10500, Gibco), and 1% (v/v) P/S (15070, Gibco). EC50 values were determined by fitting a four parameter sigmoidal curve model using XLfit (IDBS). Reported EC50 values are the mean of at least 3 independent measurements.

Chain of MTHFD2 (P13995 36-350): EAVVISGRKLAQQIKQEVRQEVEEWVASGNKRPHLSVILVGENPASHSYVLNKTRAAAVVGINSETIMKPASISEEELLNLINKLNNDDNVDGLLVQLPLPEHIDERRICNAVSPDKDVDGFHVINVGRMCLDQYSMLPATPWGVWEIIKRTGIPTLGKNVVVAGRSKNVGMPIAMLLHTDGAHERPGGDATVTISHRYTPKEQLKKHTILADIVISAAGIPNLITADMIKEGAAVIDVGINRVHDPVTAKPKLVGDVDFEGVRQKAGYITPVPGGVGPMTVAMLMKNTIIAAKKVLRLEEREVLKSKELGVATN

Compound	IC50 [1]	EC50 [2]
Nc1nc(N)c(CC(=O)Nc2ccc(C(=O)N[C@@H](CCC(=O)O)C(=O)O)nc2)c(=O)[nH]1 [Example 7, (2S)-2-((5-[2-(2,4-diamino-6-oxo-1,6-dihydropyrimidin-5-yl)acetamido]pyridin-2-yl)formamido)pentanedioic acid hydrochloride]	154 nM	17 nM
Nc1nc(N)c(NC(=O)Nc2ccc(C(=O)N[C@H](C(=O)O)c3ccccc3)nc2)c(=O)[nH]1 [Example 15, (2S)-2-[(5-{[(2,4-diamino-6-oxo-1,6-dihydropyrimidin-5-yl)carbamoyl]amino}pyridin-2-yl)formamido]-2-phenylacetic acid]	23 nM	470 nM
CC(C)[C@H](NC(=O)c1ncc(NC(=O)Cc2c(N)nc(N)[nH]c2=O)cc1F)C(=O)O [Example 34, (2S)-2-((5-[2-(2,4-diamino-6-oxo-1,6-dihydropyrimidin-5-yl)acetamido]-3-fluoropyridin-2-yl)formamido)-3-methylbutanoic acid]	60 nM	177 nM
Nc1nc(N)c(CC(=O)Nc2cnc(C(=O)N[C@@H](CCC(=O)O)C(=O)O)c(C(F)(F)F)c2)c(=O)[nH]1 [Example 30, (2S)-2-((5-[2-(2,4-diamino-6-oxo-1,6-dihydropyrimidin-5-yl)acetamido]-3-(trifluoromethyl)pyridin-2-yl)formamido)pentanedioic acid]	1100 nM	161 nM
Nc1nc(N)c(CC(=O)Nc2ccc(C(=O)N[C@@H](CCC(=O)N[C@@H](CCC(=O)O)C(=O)O)C(=O)O)nc2)c(=O)[nH]1 [Example 28, (2S)-2-[(4S)-4-carboxy-4-({5-[2-(2,4-diamino-6-oxo-1,6-dihydropyrimidin-5-yl)acetamido]pyridin-2-yl}formamido)butanamido]pentanedioic acid]	92 nM	22 nM

Continued, values first:

IC50 [1]	EC50 [2]	Compound
103 nM	215 nM	CC(C)[C@H](NC(=O)c1ccc(NC(=O)Cc2c(N)nc(N)[nH]c2=O)cn1)C(=O)O [Example 13, (2S)-2-({5-[2-(2,4-diamino-6-oxo-1,6-dihydropyrimidin-5-yl)acetamido]pyridin-2-yl}formamido)-3-methylbutanoic acid]
3 nM	45 nM	Nc1nc(N)c(NC(=O)Nc2ccc(C(=O)N[C@@H](CCC(=O)O)C(=O)O)nc2OC2CC2)c(=O)[nH]1 [Example 18, (2S)-2-[(6-cyclopropoxy-5-{[(2,4-diamino-6-oxo-1,6-dihydropyrimidin-5-yl)carbamoyl]amino}pyridin-2-yl)formamido]pentanedioic acid]
12 nM	24 nM	Nc1nc(N)c(NC(=O)Nc2ccc(C(=O)N[C@@H](CCc3nnn[nH]3)C(=O)O)nc2)c(=O)[nH]1 [Example 4, (2S)-2-[(5-{[(2,4-diamino-6-oxo-1,6-dihydropyrimidin-5-yl)carbamoyl]amino}pyridin-2-yl)formamido]-4-(1H-1,2,3,4-tetrazol-5-yl)butanoic acid]
5 nM	20 nM	Nc1nc(N)c(NC(=O)Nc2cnc(C(=O)N[C@@H](Cc3ccccc3)C(=O)O)c(F)c2)c(=O)[nH]1 [Example 35, (2S)-2-[(5-{[(2,4-diamino-6-oxo-1,6-dihydropyrimidin-5-yl)carbamoyl]amino}-3-fluoropyridin-2-yl)formamido]-3-phenylpropanoic acid]
10 nM	100 nM	Nc1nc(N)c(NC(=O)Nc2cnc(C(=O)N[C@@H](CCC(=O)O)C(=O)O)c(F)c2)c(=O)[nH]1 [Example 6, (2S)-2-[(5-{[(2,4-diamino-6-oxo-1,6-dihydropyrimidin-5-yl)carbamoyl]amino}-3-fluoropyridin-2-yl)formamido]pentanedioic acid]
92 nM	24 nM	Nc1nc(N)c(CC(=O)Nc2cnc(C(=O)N[C@@H](Cc3ccccc3)C(=O)O)c(F)c2)c(=O)[nH]1 [Example 33, (2S)-2-((5-[2-(2,4-diamino-6-oxo-1,6-dihydropyrimidin-5-yl)acetamido]-3-fluoropyridin-2-yl)formamido)-3-phenylpropanoic acid]
